Measurements from paper PMC12040169 (PLOS Biology, 2025).

experiment: in vitro; details: human, hela cells, % viability

Row | Compound | viability at 28.5 h, 10 µM
1 | Cc1noc(C)c1C(=O)N1CCCC(c2nc(C)n3ccsc23)C1 (stereo not shown) [CBK285211] | 103%
2 | Cc1csc2c(C3CCCN(C(=O)C4CC4)C3)nc(C)n12 (stereo not shown) [CBK285212] | 87.1%
3 | Cc1csc2c(C3CCCN(C(=O)c4ccncc4)C3)nc(C)n12 (stereo not shown) [CBK285213] | 100%
4 | COCC(=O)N1CCCC(c2nc(C)n3c(C)csc23)C1 (stereo not shown) [CBK285214] | 98.7%
5 | Cc1csc2c(C3CCCN(C(=O)c4ccnn4C)C3)nc(C)n12 (stereo not shown) [CBK285215] | 96.9%
6 | CCNC(=O)C1(Cc2ccccc2-c2ccncc2)CCOCC1 [CBK285216] | 100%
7 | C=CCNC(=O)C1(Cc2ccccc2-c2cccnc2)CCOCC1 [CBK285217] | 109%
8 | CCNC(=O)C1(Cc2ccccc2-c2cccnc2)CCOCC1 [CBK285218] | 103%
9 | Cn1ccnc1C1(O)C2CCCC1CN(CC1CCCCC1)C2 (stereo not shown) [CBK285220] | 91.5%
10 | Cn1nc(C(Cc2ccccc2)NC(=O)c2ccco2)c2cccnc21 (stereo not shown) [CBK285223] | 97.1%
11 | CC(=O)N1CCc2cc(-c3cc4c(C)cccn4c3)ccc21 [CBK285225] | 96%
12 | CC1Cc2cc(-c3cc4ccccn4c3)ccc2N1S(C)(=O)=O (stereo not shown) [CBK285227] | 90.3%
13 | Cc1nc(C2CCCN(C(=O)CCn3cccn3)C2)c2sccn12 (stereo not shown) [CBK285234] | 86.7%
14 | Cc1nc(C2CCCN(C(=O)c3cnn(C)c3)C2)c2sccn12 (stereo not shown) [CBK285236] | 81.4%
15 | Cc1nc(C2CCCN(C(=O)CCc3ccno3)C2)c2sccn12 (stereo not shown) [CBK285237] | 87.5%
16 | Cc1noc(C)c1C(=O)N1CCC(c2nc(C)n3ccsc23)CC1 [CBK285239] | 101%
17 | Cc1csc2c(C3CCN(C(=O)C4CC4)CC3)nc(C)n12 [CBK285241] | 88.8%
18 | Cc1csc2c(C3CCN(C(=O)c4ccccn4)CC3)nc(C)n12 [CBK285244] | 77.4%
19 | Cc1csc2c(C3CCN(C(=O)c4cc[nH]n4)CC3)nc(C)n12 [CBK285245] | 91.9%
20 | Cc1csc2c(C3CCN(C(=O)c4cscn4)CC3)nc(C)n12 [CBK285246] | 80.2%
21 | Cc1csc2c(C3CCN(C(=O)c4ccn(C)n4)CC3)nc(C)n12 [CBK285248] | 105%
22 | Cc1csc2c(C3CCN(C(=O)c4cnn(C)c4)CC3)nc(C)n12 [CBK285250] | 89.7%
23 | C=CCS(=O)(=O)N1CCC(c2nc(C)n3c(C)csc23)CC1 [CBK285251] | 80%

Row | Compound | viability at 28.5 h, 10 µM
24 | Cc1ccn2cc(-c3ccc4c(c3)CCN4S(C)(=O)=O)cc2c1 [CBK285252] | 83.8%
25 | CC(=O)N1c2ccc(-c3cc4ccccn4c3)cc2CC1C (stereo not shown) [CBK285254] | 79.9%
26 | Cn1ncc2c1CCCN(C(=O)COc1cccc(F)c1)C2 [CBK285257] | 96.9%
27 | CC(=O)Nc1cc2ccccc2nc1C1CCN(C(=O)C(C)C)CC1 [CBK285259] | 83.7%
28 | COc1ccc([C@@]2(O)CC[C@@H]3CN(C(=O)C4CCCC4)C[C@@H]32)cc1 [CBK285260] | 85%
29 | CC(C)NC(=O)C1CC2CCC1(C)CC21NC(=O)c2ccccc2O1 (stereo not shown) [CBK285261] | 92%
30 | O=C(c1ccccc1F)N1CC2CCCC(C1)C2N1CCOCC1 (stereo not shown) [CBK285262] | 79.9%
31 | O=C(NC1CC1)[C@H]1CN(Cc2ccccc2)C[C@@H]1C(=O)c1ccccc1 [CBK285264] | 105%
32 | Cc1ccc(-c2cc(C3CCN(C(=O)c4cnn(C)c4)C3)[nH]n2)cc1 (stereo not shown) [CBK285266] | 85.4%
33 | CC(C)CC(=O)N1C[C@H]2CCCN(Cc3ccccn3)[C@H]2C1 [CBK285269] | 86.6%
34 | Cc1cc(C)cc(OC(C)C(=O)N2CCCc3c(cnn3C)C2)c1 (stereo not shown) [CBK285270] | 82.1%
35 | Cc1n[nH]c(C)c1CC(=O)NC(Cc1ccsc1)c1ccccn1 (stereo not shown) [CBK285271] | 105%
36 | O=C(NC(Cc1ccsc1)c1ccccn1)c1ccc(=O)[nH]c1 (stereo not shown) [CBK285272] | 106%
37 | CCOc1ccc(CCC(=O)N2CCCc3c(cnn3C)C2)cc1 [CBK285276] | 85.8%
38 | C[C@]12C(=O)c3ccccc3NC(=O)C1[C@H]2C(=O)N1CCCCC1 (stereo partly shown) [CBK285281] | 92%
39 | CC(=O)N1C[C@H]2CCCN(S(=O)(=O)c3ccc(F)cc3)[C@H]2C1 [CBK285283] | 88.8%
40 | O=C(Cn1cccn1)NC(Cc1ccsc1)c1ccccn1 (stereo not shown) [CBK285284] | 92.8%
41 | CC(C)c1ccccc1OCC(=O)N1CCCc2c(cnn2C)C1 [CBK285287] | 111%
42 | CC(C)CC(=O)N1C[C@H]2CCCN(Cc3ccsc3)[C@H]2C1 [CBK285290] | 102%
43 | CC(C)(C)NC(=O)[C@@H]1CNC[C@]12Cc1ccccc1C(=O)N2 [CBK285294] | 103%
44 | Cc1ccc([C@@]2(O)CC[C@@H]3CN(S(=O)(=O)C(C)C)C[C@@H]32)cc1 [CBK285297] | 97.8%
45 | Cn1cc(C2CCCCCN2C(=O)c2cc(C3CC3)on2)cn1 (stereo not shown) [CBK285301] | 104%
46 | Cc1c(C(=O)N2CCCC(c3cnccn3)C2)oc2c(F)cccc12 (stereo not shown) [CBK285302] | 96.3%

Row | Compound | viability at 28.5 h, 10 µM
47 | Cc1noc2nc(C3CCN(C(=O)C4CC4)CC3)cc(C(F)F)c12 [CBK285306] | 95.8%
48 | Cc1noc2nc(C3CCN(C(=O)C4CC4C)CC3)cc(C(F)F)c12 (stereo not shown) [CBK285307] | 93%
49 | O=C1NC2(CCc3ccccc31)CCN(C(=O)c1ccc(F)cc1)C2 (stereo not shown) [CBK285308] | 102%
50 | c1csc(-c2nnc(C3CCN(Cc4ccsc4)CC3)o2)c1 [CBK285309] | 102%
51 | CC(C)(C)C(=O)N1CCC(c2nnc3n2CCCCC3)CC1 [CBK285311] | 88.7%
52 | Cc1ccc(C(=O)N2C[C@H]3NC(=O)c4ccccc4C(=O)[C@@]3(C)C2)cc1 [CBK285315] | 87.6%
53 | Cc1ccccc1C(=O)N1C[C@H]2NC(=O)c3ccccc3C(=O)[C@@]2(C)C1 [CBK285316] | 99.7%
54 | O=C(NCCc1c[nH]c2cccc(C3(O)CCCC3)c12)C1CC1 [CBK285319] | 82.3%
55 | Cn1cc([C@@H]2CN(Cc3cccs3)C[C@H]2N)c2ccncc21 [CBK285320] | 98.9%
56 | O=C(NC1CCN(CC2(c3ccccc3)CC2)CC1)c1ccco1 [CBK285321] | 83.7%
57 | O=C(NC1CCN(CC2(c3ccccc3)CC2)CC1)C1CCC1 [CBK285322] | 98.9%
58 | COc1ccc(CCC(=O)N2CCCc3c(cnn3C)C2)cc1 [CBK285326] | 111%
59 | CN(C)CC1CN(C(=O)Cc2ccccc2F)Cc2ccccc2O1 (stereo not shown) [CBK285327] | 90.4%
60 | OCC1CCCN(Cc2c(C3CCCC3)[nH]c3ncccc23)C1 (stereo not shown) [CBK285332] | 96.1%
61 | CC(=O)N1CCCN(Cc2c(C(C)C)[nH]c3ncccc23)CC1 [CBK285333] | 103%
62 | CN1CCN(Cc2c(C(C)(C)C)[nH]c3ncccc23)CC1 [CBK285334] | 104%
63 | CN1CCN(Cc2c(-c3ccc(F)cc3)[nH]c3ncccc23)CC1 [CBK285335] | 85.4%
64 | c1cnc2[nH]c(C3CCCC3)c(CN3CCOCC3)c2c1 [CBK285337] | 77.5%
65 | CC(=O)N1CCN(Cc2c(C3CCCC3)[nH]c3ncccc23)CC1 [CBK285339] | 80%
66 | CC(C)(C)c1[nH]c2ncccc2c1CN1CCSCC1 [CBK285340] | 93.6%
67 | CCN1CCN(Cc2c(C(C)(C)C)[nH]c3ncccc23)CC1 [CBK285341] | 106%
68 | CC(C)(C)c1[nH]c2ncccc2c1CN1CCCC(CO)C1 (stereo not shown) [CBK285342] | 99.1%
69 | O=C1NCCCC12CCN(Cc1cccs1)CC2 [CBK285346] | 85.2%

Row | Compound | viability at 28.5 h, 10 µM
70 | C=CCNC(=O)Cn1cccc2cc(-c3ccc(OC)cc3)nc1-2 [CBK285348] | 92.4%
71 | CN(C)C(=O)Cn1cccc2cc(-c3ccc(F)cc3)nc1-2 [CBK285349] | 105%
72 | FC(F)(F)c1[nH]c2ncccc2c1CN1CCN2CCCCC2C1 (stereo not shown) [CBK285355] | 80.9%
73 | O=C(NCC1CCCO1)c1ccc(-n2ccnc2)c(-n2cccc2)c1 (stereo not shown) [CBK285356] | 98.2%
74 | Cc1ccc(C2(CN3CCC(NC(=O)c4cc[nH]n4)CC3)CC2)cc1 [CBK285360] | 97.8%
75 | Cc1ccc(CN2C[C@@H]3CC[C@@](O)(c4ncccc4C)[C@@H]3C2)o1 [CBK285361] | 82.6%
76 | C=CCNC(=O)Cn1c(-c2ccc(OC)cc2)cc2cccnc21 [CBK285363] | 83.2%
77 | O=C(NCc1ccncc1)c1ccc(-n2ccnc2)c(-n2cccc2)c1 [CBK285367] | 88.4%
78 | O=C(NC1CCCC1)c1ccc(-n2ccnc2)c(-n2cccc2)c1 [CBK285368] | 94.1%
79 | CCN(CC)C(=O)c1ccc(-n2ccnc2)c(-n2cccc2)c1 [CBK285371] | 86.3%
80 | CC1CC(C)CN(C(=O)c2ccc(-n3ccnc3)c(-n3cccc3)c2)C1 (stereo not shown) [CBK285372] | 101%
81 | Cn1nccc1C(=O)NC1CCN(CC2(c3ccccc3)CC2)CC1 [CBK285373] | 106%
82 | COc1ccc(C2(CN3CCC(NC(=O)C(C)C)CC3)CC2)cc1 [CBK285374] | 104%
83 | OC1(c2cccnc2F)CCN(Cc2cc(F)cc(F)c2)CC1 [CBK285375] | 81.5%
84 | O=C(NC1CC2(CCOCC2)Oc2ccccc21)c1cccs1 (stereo not shown) [CBK285377] | 85.6%
85 | O=C(NC1CC2(CCOCC2)Oc2ccccc21)c1ccco1 (stereo not shown) [CBK285378] | 98%
86 | COc1ccc(-c2cc3cccn(CC(=O)N(C)C)c-3n2)cc1 [CBK285382] | 105%
87 | O=C(Cn1c(-c2ccc(F)cc2)cc2cccnc21)N1CCOCC1 [CBK285383] | 94.8%
88 | O=C(Cn1c(-c2ccc(F)cc2)cc2cccnc21)N1CCCC1 [CBK285384] | 102%
89 | CCN1CCN(Cc2c(C3CCCC3)[nH]c3ncccc23)CC1 [CBK285386] | 97%
90 | COCC(=O)NC1CCN(CC2(c3ccc(F)cc3)CCCC2)CC1 [CBK285387] | 95.5%
91 | CCC(C)NC(=O)Cn1c(C2CCOCC2)cc2cccnc21 (stereo not shown) [CBK285390] | 104%
